We go through three compounds from PubChem BioAssay AID1745844 (Carcinogenic Potency Database (CPDB), 2022).

Activity calls are given as the source filed them. No rule for the calls is given here.

This data set concerns rodent lifetime carcinogenesis bioassay, tumor incidence TD50. Description: chronic cancer bioassays in animals – CPDB, compiled studies (AID 1745844).

In the case of `[Cl][Cd][Cl]`, the carcinogen call is “negative (inactive)” (hamster, strain Syrian Golden, females, inhaled, site: lung, lesion: one or several types, types not named, dosed 60 weeks, study length 76 weeks); “negative (inactive)” (hamster, strain Syrian Golden, females, inhaled, site: lung, lesion: one or several types, types not named, dosed 64 weeks, study length 76 weeks); “negative (inactive)” (hamster, strain Syrian Golden, males, inhaled, site: lung, lesion: one or several types, types not named, dosed 60 weeks, study length 102 weeks); “negative (inactive)” (hamster, strain Syrian Golden, males, inhaled, site: lung, lesion: one or several types, types not named, dosed 64 weeks, study length 113 weeks); “negative (inactive)” (mouse, strain NMRI, females, inhaled, site: lung, lesion: adenocarcinoma, dosed 42 weeks, study length 82 weeks); “negative (inactive)” (mouse, strain NMRI, females, inhaled, site: lung, lesion: adenocarcinoma, dosed 69 weeks, study length 89 weeks). The carcinogen call is “negative (inactive)” (mouse, strain NMRI, females, inhaled, site: lung, lesion: adenoma, dosed 42 weeks, study length 82 weeks); “negative (inactive)” (mouse, strain NMRI, females, inhaled, site: lung, lesion: adenoma, dosed 69 weeks, study length 89 weeks); “negative (inactive)” (mouse, strain NMRI, females, inhaled, site: lung, lesion: several types, types named in the paper, dosed 42 weeks, study length 82 weeks); “negative (inactive)” (mouse, strain NMRI, females, inhaled, site: lung, lesion: several types, types named in the paper, dosed 69 weeks, study length 89 weeks); “negative (inactive)” (rat, strain BOR:WISW (Wistar), females, in feed, site: kidney, lesion: one or several types, types not named, dosed 72 weeks, study length 72 weeks); “negative (inactive)” (rat, strain BOR:WISW (Wistar), males, in feed, site: kidney, lesion: one or several types, types not named, dosed 72 weeks, study length 72 weeks). The carcinogen call (rat, strain Wistar W.74, females, in feed, site: liver, lesion: hepatoma, dosed 104 weeks, study length 105 weeks) is “negative (inactive)”; the carcinogen call (rat, strain Wistar W.74, males, in feed, site: any site (literature study), lesion: benign tumor, dosed 104 weeks, study length 105 weeks) was “negative (inactive)”; the carcinogen call (rat, strain Wistar W.74, males, in feed, site: any site (literature study), lesion: several types, types named in the paper, dosed 104 weeks, study length 105 weeks) was “negative (inactive)”; the carcinogen call (rat, strain Wistar W.74, males, in feed, site: liver, lesion: hepatoma, dosed 104 weeks, study length 105 weeks) was “negative (inactive)”; the carcinogen call (rat, strain Wistar, males, in feed, site: all sites, lesion: lymphocytic leukemia, dosed 77 weeks, study length 77 weeks) was “positive”. The TD50 by setting is: (rat, strain NBL/Cr, males, in drinking water, site: adrenal gland, lesion: pheochromocytoma, benign/malignant, dosed 102 weeks, study length 102 weeks) 686 mg/kg/day; (rat, strain NBL/Cr, males, in drinking water, site: kidney/pelvis, lesion: transitional-cell carcinoma, dosed 102 weeks, study length 102 weeks) 584 mg/kg/day; (rat, strain NBL/Cr, males, in drinking water, site: kidney, lesion: lipoma, dosed 102 weeks, study length 102 weeks) 584 mg/kg/day; (rat, strain NBL/Cr, males, in drinking water, site: kidney, lesion: malignant mesenchymal tumor, dosed 102 weeks, study length 102 weeks) 193 mg/kg/day; (rat, strain NBL/Cr, males, in drinking water, site: kidney, lesion: several types, types named in the paper, dosed 102 weeks, study length 102 weeks) 114 mg/kg/day; (rat, strain Wistar W.74, females, in feed, site: any site (literature study), lesion: benign tumor, dosed 104 weeks, study length 105 weeks) 44 mg/kg/day (inactive). Moreover, the TD50 runs as follows: (rat, strain Wistar W.74, females, in feed, site: any site (literature study), lesion: malignant tumor, dosed 104 weeks, study length 105 weeks) 124 mg/kg/day (inactive); (rat, strain Wistar W.74, females, in feed, site: any site (literature study), lesion: several types, types named in the paper, dosed 104 weeks, study length 105 weeks) 21.6 mg/kg/day (inactive); (rat, strain Wistar W.74, males, in feed, site: adrenal gland, lesion: pheochromocytoma, dosed 104 weeks, study length 105 weeks) 1.33 mg/kg/day (inactive); (rat, strain Wistar W.74, males, in feed, site: any site (literature study), lesion: malignant tumor, dosed 104 weeks, study length 105 weeks) 47.4 mg/kg/day (inactive); (rat, strain Wistar, females, inhaled, site: lung, lesion: adenocarcinoma, dosed 26 weeks, study length 126 weeks) 0.206 mg/kg/day; (rat, strain Wistar, females, inhaled, site: lung, lesion: adenocarcinoma, dosed 78 weeks, study length 134 weeks) 0.0253 mg/kg/day. In addition, the TD50 was 0.106 mg/kg/day (rat, strain Wistar, females, inhaled, site: lung, lesion: adenosquamous carcinoma, dosed 78 weeks, study length 134 weeks); 0.0495 mg/kg/day (rat, strain Wistar, females, inhaled, site: lung, lesion: alveolar/bronchiolar adenoma, dosed 78 weeks, study length 134 weeks); 0.0645 mg/kg/day (rat, strain Wistar, females, inhaled, site: lung, lesion: several types, types named in the paper, dosed 26 weeks, study length 126 weeks); 0.00971 mg/kg/day (rat, strain Wistar, females, inhaled, site: lung, lesion: several types, types named in the paper, dosed 78 weeks, study length 134 weeks); 0.0998 mg/kg/day (rat, strain Wistar, females, inhaled, site: lung, lesion: squamous-cell tumor, dosed 26 weeks, study length 126 weeks); 56.9 mg/kg/day (rat, strain Wistar, males, in feed, site: prostate, lesion: adenoma, dosed 77 weeks, study length 77 weeks). Moreover, the TD50 was 31.6 mg/kg/day (rat, strain Wistar, males, in feed, site: testis, lesion: interstitial-cell tumor, benign, dosed 77 weeks, study length 77 weeks); 0.591 mg/kg/day (rat, strain Wistar, males, inhaled, site: adrenal gland, lesion: pheochromocytoma, benign/malignant, dosed 78 weeks, study length 134 weeks); 0.0294 mg/kg/day (rat, strain Wistar, males, inhaled, site: lung, lesion: adenocarcinoma, dosed 26 weeks, study length 130 weeks); 0.00924 mg/kg/day (rat, strain Wistar, males, inhaled, site: lung, lesion: adenocarcinoma, dosed 78 weeks, study length 130 weeks); 0.022 mg/kg/day (rat, strain Wistar, males, inhaled, site: lung, lesion: adenocarcinoma, dosed 78 weeks, study length 134 weeks); 0.563 mg/kg/day (rat, strain Wistar, males, inhaled, site: lung, lesion: adenoma, dosed 78 weeks, study length 134 weeks). In addition, the TD50 runs as follows: (rat, strain Wistar, males, inhaled, site: lung, lesion: adenosquamous carcinoma, dosed 78 weeks, study length 130 weeks) 0.165 mg/kg/day; (rat, strain Wistar, males, inhaled, site: lung, lesion: alveolar/bronchiolar adenoma, dosed 26 weeks, study length 130 weeks) 0.0521 mg/kg/day; (rat, strain Wistar, males, inhaled, site: lung, lesion: alveolar/bronchiolar adenoma, dosed 78 weeks, study length 130 weeks) 0.0804 mg/kg/day; (rat, strain Wistar, males, inhaled, site: lung, lesion: carcinoma, dosed 78 weeks, study length 134 weeks) 0.0127 mg/kg/day; (rat, strain Wistar, males, inhaled, site: lung, lesion: epidermoid carcinoma, dosed 78 weeks, study length 134 weeks) 0.0588 mg/kg/day; (rat, strain Wistar, males, inhaled, site: lung, lesion: muco-epidermoid carcinoma, dosed 78 weeks, study length 134 weeks) 0.315 mg/kg/day. The TD50 reads like this: (rat, strain Wistar, males, inhaled, site: lung, lesion: several types, types named in the paper, dosed 26 weeks, study length 130 weeks) 0.0106 mg/kg/day; (rat, strain Wistar, males, inhaled, site: lung, lesion: several types, types named in the paper, dosed 78 weeks, study length 130 weeks) 0.00611 mg/kg/day; (rat, strain Wistar, males, inhaled, site: lung, lesion: squamous-cell tumor, dosed 26 weeks, study length 130 weeks) 0.0521 mg/kg/day.
Take `O=C1OC(CN2CCOCC2)CN1/N=C/c1ccc([N+](=O)[O-])o1` (configuration not stated): the TD50 runs as follows: (rat, strain Sprague-Dawley, females, in feed, site: all sites, lesion: lymphoblastic lymphoma, dosed 46 weeks, study length 66 weeks) 39 mg/kg/day; (rat, strain Sprague-Dawley, females, in feed, site: any site (literature study), lesion: several types, types named in the paper, dosed 46 weeks, study length 66 weeks) 2.81 mg/kg/day; (rat, strain Sprague-Dawley, females, in feed, site: kidney/pelvis, lesion: transitional-cell carcinoma, dosed 46 weeks, study length 66 weeks) 149 mg/kg/day; (rat, strain Sprague-Dawley, females, in feed, site: mammary gland, lesion: adenocarcinoma, dosed 46 weeks, study length 66 weeks) 6.33 mg/kg/day; (rat, strain Sprague-Dawley, females, in feed, site: mammary gland, lesion: several types, types named in the paper, dosed 46 weeks, study length 66 weeks) 2.81 mg/kg/day.
In the case of `Cc1cccc(Nc2cc(Cl)nc(SCC(=O)O)n2)c1C`, the carcinogen call was “negative (inactive)” (hamster, strain Syrian, MB strain, males, in feed, site: liver, lesion: several types, types named in the paper, dosed 60 weeks, study length 60 weeks); “positive” (mouse, strain CSb, males, in feed, site: liver, lesion: hepatocellular carcinoma, dosed 53 weeks, study length 63 weeks); “positive” (rat, strain F344/DuCrj, males, in feed, site: liver, lesion: several types, types named in the paper, dosed 78 weeks, study length 78 weeks); “positive” (rat, strain Fischer 344, males, in feed, site: liver, lesion: hepatocellular carcinoma, trabecular, dosed 69 weeks, study length 69 weeks); “positive” (rat, strain Fischer 344, males, in feed, site: liver, lesion: hepatocellular carcinoma, dosed 65 weeks, study length 65 weeks); “positive” (rat, strain Fischer 344, males, in feed, site: liver, lesion: several types, types named in the paper, dosed 52 weeks, study length 52 weeks). The carcinogen call (rat, strain Sprague-Dawley, males, in feed, site: liver, lesion: several types, types named in the paper, dosed 60 weeks, study length 60 weeks) was “positive”. For the same compound, the TD50 reads like this: (rat, strain F344/DuCrj, males, in feed, site: liver, lesion: several types, types named in the paper, dosed 52 weeks, study length 52 weeks) 4.26 mg/kg/day; (rat, strain Fischer 344, males, in feed, site: liver, lesion: hepatocellular adenoma, dosed 37 weeks, study length 52 weeks) 95.1 mg/kg/day; (rat, strain Fischer 344, males, in feed, site: liver, lesion: hepatocellular adenoma, dosed 37 weeks, study length 104 weeks) 190 mg/kg/day; (rat, strain Fischer 344, males, in feed, site: liver, lesion: hepatocellular adenoma, dosed 52 weeks, study length 52 weeks) 2.29 mg/kg/day; (rat, strain Fischer 344, males, in feed, site: liver, lesion: hepatocellular adenoma, dosed 52 weeks, study length 104 weeks) 84.3 mg/kg/day; (rat, strain Fischer 344, males, in feed, site: liver, lesion: hepatocellular carcinoma, dosed 37 weeks, study length 104 weeks) 92.6 mg/kg/day. Also, the TD50 was 19.2 mg/kg/day (rat, strain Fischer 344, males, in feed, site: liver, lesion: hepatocellular carcinoma, dosed 52 weeks, study length 52 weeks); 26.8 mg/kg/day (rat, strain Fischer 344, males, in feed, site: liver, lesion: hepatocellular carcinoma, dosed 52 weeks, study length 104 weeks); 60 mg/kg/day (rat, strain Fischer 344, males, in feed, site: liver, lesion: several types, types named in the paper, dosed 37 weeks, study length 104 weeks); 22.9 mg/kg/day (rat, strain Fischer 344, males, in feed, site: liver, lesion: several types, types named in the paper, dosed 52 weeks, study length 104 weeks).

The term TD50 denotes the 50% point of the dose-response relation for the toxic effect studied.
